# Reference: patent US10309967B2, “Methods of diagnosing bipolar disorders and screening for therapeutic compounds” (National University Corporation Chiba University, priority 2015, dated 2019)
# Entries after “also recorded” stand apart in the source; their conditions may differ.
# Tested on: CSF samples from rats
# Assay: Metabolomics (CE-TOFMS) of CSF samples from rats chronically treated with Li or VPA
# Assay type: in vivo, rat
# Details: chronic (4-weeks) treatment via drinking water
# Procedure: Data from human samples are presented as mean±standard deviation (SD). Statistical analysis was performed using SAS software version 9.3 (SAS Institute, Cary, N.C.). Analyses of metabolites between control and BD groups were performed using unpaired t-tests and Wilcoxon rank sum tests. A logistic regression model with a stepwise selection method was used for the multivariate analysis and multiple regression analysis (consistent with description in Allen et al., Technometrics. 1974; 16(1):125-127; and Miller et al., Chapman and Hall. 1974, which are incorporated in their entireties by reference herein). […] The Mann-Whitney U test (two-tailed) was used to evaluate changes in expression levels of the ACO and IDH genes between control and BD groups. Rat data are presented as mean±SD. To determine the effects of drug treatment, a one-way ANOVA, followed by the post hoc Dunnett's test was used. P values of less than 0.05 for two-tailed tests were considered statistically significant.
# The volume (50 μL) of CSF sample was added to 450 μL it methanol containing internal standards, and mixed. Then, 450 μL chloroform and 200 μL Milli-Q water was added to the mixture. After mixture, the mixture was centrifuged at 2,300×g and 4° C. for 5 min. Subsequently, 800 μL of upper aqueous layer was centrifugally filtered through a Millipore 5-kDa cutoff filter at 9,100×g and 4° C. for 120 min to remove proteins. The filtrate was centrifugally concentrated and re-suspended in 25 μL of Milli-Q water for analysis.
# Cationic compounds were measured in the positive mode of CE-TOFMS (Agilent CE-TOFMS system Machine No. 3, Fused silica capillary, i.d. 50 μM×80 cm), and anionic compounds were measured in the positive and negative modes of CE-MS/MS (Agilent CE system and Agilent 6400 TripleQuad LC/MS Machine No. QqQ01, Fused silica capillary, i.d. 50 μM×80 cm), as reported previously (Soga et al., Anal. Chem. 2000; 72(6):1236-1241; Soga et al., Anal Chem. 2002; 74(10):2233-2239; Soga et al., J. Proteome Res. 2003; 2(5):488-494, which are incorporated in their entireties by reference herein). Peaks detected by CE-TOFMS and CE-MS/MS were extracted using automatic integration software (MasterHands, Keio University, Tsuruoka, Japan) (Sugimoto et al., Metabolomics. 2009; 6(1):78-95, which is incorporated in its entirety by reference herein) and MassHunter Quantitative Analysis B.04.00, Agilent Technologies, Santa Clara, Calif., USA) in order to obtain peak information including m/z, migration time (MT), and peak area. The peaks were annotated with putative metabolites from the HMT metabolite database based on their MTs in CE and m/z values determined by TOFMS. The tolerance range for the peak annotation was configured at ±0.5 min for MT and ±10 ppm for m/z. In addition, concentrations of metabolites were calculated by normalizing the peak area of each metabolite with respect to the area of the internal standard and by using standard curves, which were obtained by three-point calibrations.
# The CSF concentrations of 116 major metabolites from several pathways were measured. […] Male Sprague-Dawley rats (Japan SLC Inc., Shizuoka, Japan) aged 6 weeks old were used in this study. All rats were housed in groups of three per cage in a room maintained at 23° C.±2° C. and 60±10% humidity with a 12/12 hour light/dark cycle (lights on at 7:00 a.m.). The rats were given free access to food and water. Animal care and use were conducted in accordance with the Institutional Guidelines for Animal Care and Use of Otsuka Pharmaceutical Co., Ltd. (Tokushima, Japan). […] The drinking water was replaced twice a week. […] All animals were decapitated on day 30 after CSF sampling, and brain regions (prefrontal cortex, and hippocampus) were dissected rapidly on ice. Metabolomic analyses of rat CSF samples were performed as described herein.
compound,measurement,setting,value
"O=C([O-])[O-].[Li+].[Li+] [Li, lithium carbonate]",2-Oxoisovaleric acid Mean,rat CSF,4.3 µM
same,3-Phosphoglyceric acid Mean,rat CSF,0.3 µM
same,ADP-ribose Mean,rat CSF,0.010 µM
same,Adenosine Mean,rat CSF,0.2 µM
same,Alanin (Ala) Mean,rat CSF,54 µM
same,Arginine (Arg) Mean,rat CSF,31 µM
same,Argininosuccinic acid Mean,rat CSF,1.0 µM
same,Asparagic acid (Asp) Mean,rat CSF,1.8 µM
same,Asparagine (Asn) Mean,rat CSF,4.8 µM
same,Carnosine Mean,rat CSF,0.5 µM
same,Choline Mean,rat CSF,7.5 µM
same,Citric acid Mean,rat CSF,57 µM
same,Citrulline Mean,rat CSF,3.8 µM
same,Creatine Mean,rat CSF,60 µM
same,Creatinine Mean,rat CSF,6.0 µM
same,Dihydroxyacetone phosphate Mean,rat CSF,0.6 µM
same,Fructose 6-phosphate Mean,rat CSF,0.2 µM
same,Glucose 6-phosphate Mean,rat CSF,0.5 µM
same,Glutamic acid (Glu) Mean,rat CSF,2.0 µM
same,Glutamine (Gln) Mean,rat CSF,534 µM
same,Glutathione (GSSG) Mean,rat CSF,1.1 µM
same,Glyceraldehyde 3-phosphate Mean,rat CSF,0.9 µM
same,Glycerol 3-phosphate Mean,rat CSF,7.2 µM
same,Glycine (Gly) Mean,rat CSF,5.5 µM
same,Histidine (His) Mean,rat CSF,7.1 µM
same,Homoserine Mean,rat CSF,0.10 µM
same,Hydroxyproline Mean,rat CSF,1.1 µM
same,Hypoxanthine Mean,rat CSF,1.2 µM
same,Inosine monophosphate (IMP) Mean,rat CSF,0.10 µM
same,Isocitric acid Mean,rat CSF,2.0 µM
same,Isoleucine (Ile) Mean,rat CSF,1.5 µM
same,Lactic acid Mean,rat CSF,"2,438 μM"
same,Leucine (Leu) Mean,rat CSF,5.1 µM
same,Lysine (Lys) Mean,rat CSF,71 µM
same,Malic acid Mean,rat CSF,2.2 µM
same,Methionine (Met) Mean,rat CSF,4.4 µM
same,Mevalonic acid Mean,rat CSF,0.003 µM
same,N-Carbamoylaspartic acid Mean,rat CSF,0.04 µM
same,Nicotinamide Adenine dinucleotide (NAD^+) Mean,rat CSF,0.8 µM
same,Nicotinamide Adenine dinucleotide phophate (NADP^+) Mean,rat CSF,0.09 µM
same,Ornithine Mean,rat CSF,2.3 µM
same,Phenylalanine (Phe) Mean,rat CSF,3.1 µM
same,Phosphocreatine Mean,rat CSF,6.9 µM
same,Phosphoenolpyruvic acid Mean,rat CSF,0.2 µM
same,Pyruvic acid Mean,rat CSF,29 µM
same,Ribose 5-phosphate Mean,rat CSF,0.07 µM
same,Ribulose 5-phosphate Mean,rat CSF,0.10 µM
same,S-Adenosylmethionine Mean,rat CSF,0.5 µM
same,Serine (Ser) Mean,rat CSF,82 µM
same,Succinic acid Mean,rat CSF,9.0 µM
same,Threonine (Thr) Mean,rat CSF,54 µM
same,Tryptophan (Trp) Mean,rat CSF,1.2 µM
same,Tyrosine (Tyr) Mean,rat CSF,5.4 µM
same,UDP-glucose Mean,rat CSF,0.3 µM
same,Urea Mean,rat CSF,"4,332 μM"
same,Uric acid Mean,rat CSF,1.8 µM
same,Valine (Val) Mean,rat CSF,2.3 µM
same,Xanthine Mean,rat CSF,1.6 µM
same,cyclic AMP (cAMP) Mean,rat CSF,0.007 µM
same,cyclic GMP (cGMP) Mean,rat CSF,0.003 µM
same,CSF levels of argininosuccinic acid,"rats, vs control",significantly increased
same,CSF levels of isocitrate,"rats, vs control",not altered; also recorded: did not alter
same,CSF levels of succinic acid,"rats, vs control",significantly increased
"CCCC(CCC)C(=O)[O-].[Na+] [VPA, valproic acid sodium salt]",2-Oxoisovaleric acid Mean,rat CSF,4.3 µM
same,3-Phosphoglyceric acid Mean,rat CSF,0.3 µM
same,ADP-ribose Mean,rat CSF,0.01 µM
same,Adenosine Mean,rat CSF,0.2 µM
same,Alanin (Ala) Mean,rat CSF,50 µM
same,Arginine (Arg) Mean,rat CSF,27 µM
same,Argininosuccinic acid Mean,rat CSF,0.7 µM
same,Asparagic acid (Asp) Mean,rat CSF,1.6 µM
same,Asparagine (Asn) Mean,rat CSF,4.0 µM
same,Carnosine Mean,rat CSF,0.5 µM
same,Choline Mean,rat CSF,7.8 µM
same,Citric acid Mean,rat CSF,44 µM
same,Citrulline Mean,rat CSF,3.6 µM
same,Creatine Mean,rat CSF,56 µM
same,Creatinine Mean,rat CSF,6.2 µM
same,Dihydroxyacetone phosphate Mean,rat CSF,0.8 µM
same,Fructose 6-phosphate Mean,rat CSF,0.2 µM
same,Glucose 6-phosphate Mean,rat CSF,0.5 µM
same,Glutamic acid (Glu) Mean,rat CSF,1.6 µM
same,Glutamine (Gln) Mean,rat CSF,598 µM
same,Glutathione (GSSG) Mean,rat CSF,0.9 µM
same,Glyceraldehyde 3-phosphate Mean,rat CSF,1.1 µM
same,Glycerol 3-phosphate Mean,rat CSF,7.0 µM
same,Glycine (Gly) Mean,rat CSF,6.5 µM
same,Histidine (His) Mean,rat CSF,7.1 µM
same,Homoserine Mean,rat CSF,0.09 µM
same,Hydroxyproline Mean,rat CSF,1.1 µM
same,Hypoxanthine Mean,rat CSF,1.4 µM
same,Inosine monophosphate (IMP) Mean,rat CSF,0.1 µM
same,Isocitric acid Mean,rat CSF,1.6 µM
same,Isoleucine (Ile) Mean,rat CSF,1.2 µM
same,Lactic acid Mean,rat CSF,"2,361 μM"
same,Leucine (Leu) Mean,rat CSF,4.5 µM
same,Lysine (Lys) Mean,rat CSF,85 µM
same,Malic acid Mean,rat CSF,0.7 µM
same,Methionine (Met) Mean,rat CSF,3.3 µM
same,N-Carbamoylaspartic acid Mean,rat CSF,0.02 µM
same,Nicotinamide Adenine dinucleotide (NAD^+) Mean,rat CSF,0.8 µM
same,Nicotinamide Adenine dinucleotide phophate (NADP^+) Mean,rat CSF,0.09 µM
same,Ornithine Mean,rat CSF,2.2 µM
same,Phenylalanine (Phe) Mean,rat CSF,2.9 µM
same,Phosphocreatine Mean,rat CSF,6.8 µM
same,Phosphoenolpyruvic acid Mean,rat CSF,0.15 µM
same,Pyruvic acid Mean,rat CSF,21 µM
same,Ribose 5-phosphate Mean,rat CSF,0.06 µM
same,Ribulose 5-phosphate Mean,rat CSF,0.08 µM
same,S-Adenosylmethionine Mean,rat CSF,0.5 µM
same,Serine (Ser) Mean,rat CSF,83 µM
same,Succinic acid Mean,rat CSF,7.4 µM
same,Threonine (Thr) Mean,rat CSF,41 µM
same,Tryptophan (Trp) Mean,rat CSF,1.0 µM
same,Tyrosine (Tyr) Mean,rat CSF,5.2 µM
same,UDP-glucose Mean,rat CSF,0.3 µM
same,Urea Mean,rat CSF,"3,714 μM"
same,Uric acid Mean,rat CSF,1.8 µM
same,Valine (Val) Mean,rat CSF,2.1 µM
same,Xanthine Mean,rat CSF,1.5 µM
same,cyclic AMP (cAMP) Mean,rat CSF,0.006 µM
same,cyclic GMP (cGMP) Mean,rat CSF,0.003 µM
same,CSF levels of arginine,"rats, vs control",significantly altered
same,CSF levels of argininosuccinic acid,"rats, vs control",significantly altered
same,CSF levels of glutamine,"rats, vs control",significantly altered
same,CSF levels of threonine,"rats, vs control",significantly altered
same,CSF levels of tryptophan,"rats, vs control",significantly altered
same,CSF levels of isocitrate,"rats, vs control, sodium salt",not altered; also recorded: did not alter
